Measured values taken from PMC8509428, “The Phenoxyalkyltriazine Antagonists for 5-HT6 Receptor with Promising Procognitive and Pharmacokinetic Properties In Vivo in Search for a Novel Therapeutic Approach to Dementia Diseases” (International Journal of Molecular Sciences, 2021).
Where two headings read alike, the source gives them in different places.

Columns and labels:
[1] = molecular target: T1, 5-HT1AR (Homo sapiens, UniProt P08908); assay: Radioligand binding assay (RBA), 5-HT1AR; details: ± SD; displacement of [3H]-8-OHDPAT, HEK-293 cells; read-out: Ki 5-HT1A (converted)
T1 construct: expressed in transfected cells; host or cells: HEK-293
T1 sequence (P08908 1-422): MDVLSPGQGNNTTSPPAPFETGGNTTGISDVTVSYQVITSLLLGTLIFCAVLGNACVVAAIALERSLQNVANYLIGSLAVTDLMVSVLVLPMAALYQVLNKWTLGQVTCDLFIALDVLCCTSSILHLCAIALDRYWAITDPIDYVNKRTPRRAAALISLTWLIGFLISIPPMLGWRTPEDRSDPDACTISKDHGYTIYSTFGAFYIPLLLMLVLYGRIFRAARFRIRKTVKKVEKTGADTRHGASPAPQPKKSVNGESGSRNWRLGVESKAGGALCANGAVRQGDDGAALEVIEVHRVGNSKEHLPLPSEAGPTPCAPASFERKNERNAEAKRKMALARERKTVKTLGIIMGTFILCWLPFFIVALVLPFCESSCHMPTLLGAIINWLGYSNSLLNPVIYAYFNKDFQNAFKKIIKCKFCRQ
Method: The cells used in the radioligand binding assays receptor 5-HT1A were stably expressed in HEK-293 cells. Transfections were performed with the use of Lipofectamine 2000. The binding procedure was accomplished via the displacement of 2.5 nM [^3H]-8-OHDPAT (135.2 Ci/mmol) for 5-HT1AR. Each compound was tested in triplicate in seven to eight different concentrations (10^−11 to 10^−4 M). The inhibition constants (Ki) were calculated using the Cheng–Prusoff equation [45] and the results are expressed as the mean of at least two independent experiments.

[2] = molecular target: dopaminergic receptor D2; details: ± SD; cited from earlier work
[3] = system: Salmonella Typhimurium TA100; type: cell-based
Source text: The used Salmonella Typhimurium TA100 strain has base pair substitution (hisG46 mutation, which target is GGG). […] The occurrence of revertants was visualized by pH indicator dye which was present in the bacterial medium.

[4] = system: rats; assay: Forced swim test (FST); type: in vivo, rat; details: for Immobility Time: 60 min before test, mean ± SEM
Method: The experiment was carried out according to the method of [54]. On the first day of the experiment, the animals were gently individually placed in Plexiglas cylinders (40 cm high, 18 cm in diameter) containing 15 cm of water maintained at 23–25 °C for 15 min. On removal from water, the rats were placed for 30 min in a Plexiglas box under 60-W bulb to dry. On the following day (24 h later), the rats were replaced in the cylinder and the total duration of immobility was recorded during the whole 5-min test period. The immobility was assigned when no additional activity was observed other than that necessary to keep the rat’s head above the water. Fresh water was used for each animal.

[5] = system: MK-801-induced memory deficits in rats; assay: Novel object recognition (NOR) test, MK-801-induced memory impairment; type: in vivo, rat; details: for Total Exploratory Time in T2 Session: mean ± SEM; for minimal effective dose in NOR test: i.p., reversal of MK-801-induced memory impairment
Method: Five days before the experiment, the rats were transferred to the laboratory, labelled and, thereafter, left to acclimate to the new environment. The animals were handling every five days before experiments to minimize the stress reaction. The protocol was adapted from the original work. The test session comprising of two trials separated by an inter-trial interval (ITI) of 1 h was carried out after 2 days of the training session. During the first trial (familiarization, T1) two identical objects (A1 and A2) were presented in the opposite corners of the open field, approximately 10 cm from the walls. During the second trial (recognition, T2) one of the A objects was replaced by a novel object B, so that the animals were presented with the A = familiar and B = novel objects. Both trials lasted for 3 min and the animals were returned to their home cages after T1.
The objects used were the metal Coca-Cola cans and the glass jars filled with sand. […] The sequence of presentations and the location of the objects were randomly assigned to each rat. After each measurement, the floor was cleaned and dried.
The animals explored the objects by looking, licking, sniffing or touching the object but not when leaning against, standing or sitting on the object. Any rat exploring the two objects for less than 5 s within 3 min of T1 or T2 was eliminated from the study. The exploration time of the objects was measured by a blind experimenter. Based on the exploration time (E) of two objects during T2, the discrimination index (DI) was calculated according to the formula: DI = (EB − EA)/(EA + […]). Using this metric, scores approaching zero reflects no preference while positive values reflect a preference for the novel object and negative numbers reflect a preference for the familiar.
MK-801, used to attenuate learning, was administered at the dose of 0.1 mg/kg (i.p.) 30 min before the familiarization phase (T1), while investigated compounds were given 60 min before T1 session. In such scheme of experiment we could observe the impact of investigated compounds on the one type of rats’ memory—episodic memory and one phase of memory process—[…].
The total exploration time in T2 was used to express the influence of the treatment on the exploratory activity of the animals.

[6] = system: SH-SY5Y cells; assay: Intracellular ROS, DCFH-DA assay (neuroprotection); type: cell-based, human; details: SH-SY5Y neuroblastoma cells
Method: ROS measurement was assayed by 2′,7′-Dichlorofluorescin diacetate (DCFH-DA, Sigma D6883). […] Briefly, SH-SY5Y cells (4 × 10^3 cells/well) were seeded in a black-sided, clear-bottom 384-well plate (Life Technologies, Warsaw, Poland) in DMEM without phenol red (Life Technologies, Warsaw, Poland) supplemented with 5% FBS and cultured for 24 h. The next day, the medium was removed, the cells were washed once with HBSS and treated for 45 min with non-fluorescent dye DCFH-DA (final concentration 25 μM, freshly prepared in warm HBSS). […] After that, toxic agents were added: H2O2 (200 μM), oxaliplatin (OXA, 25 μM) and rotenone (ROT, 32.5 μM) and the cells were incubated for 5 h. In our preliminary experiments, different concentration of toxic agents was tested to choose the convenient one that leads to 50% cell death. As a positive control, the cells were incubated alone with toxic agents. As a vehicle control, the cells were incubated with HBSS with 0.1% DMSO. In the presence of ROS, the non-fluorescent dye DCFH-DA is oxidized, producing fluorescent dichlorofluorescein (DCF). Fluorescence was measured at Ex/Em = 485/535 nm using the microplate reader EnSpire.

[7] = 0.3 mg/kg i.p. + MK-801 0.1 mg/kg
[8] = 1 mg/kg i.p. + MK-801 0.1 mg/kg
[9] = 3 mg/kg i.p. + MK-801 0.1 mg/kg

SMILES | Ki [1] [nM] | Ki [2] [nM] | Binomial B-Value ([3]; 1 µM) | Number of Revertants ± SD ([3]; 1 µM) | Binomial B-Value ([3]; 10 µM) | Number of Revertants ± SD ([3]; 10 µM) | Immobility Time ([4]; 1 mg/kg i.p.) [s] | Immobility Time ([4]; 3 mg/kg i.p.) [s] | decrease of immobility time vs vehicle-treated group ([4]; 10 mg/kg) | Immobility Time ([4]; 10 mg/kg i.p.) [s] | Total Exploratory Time in T2 Session [5, 7] [s] | Total Exploratory Time in T2 Session [5, 8] [s] | Total Exploratory Time in T2 Session [5, 9] | minimal effective dose in NOR test [5] [mg/kg] | protective activity against rotenone-induced neurotoxicity [6] | decrease of immobility time vs vehicle-treated group ([4]; 3 mg/kg) | Total Exploratory Time in T2 Session ([5]; 0.1 mg/kg i.p. + MK-801 0.1 mg/kg) [s]
CCC(Oc1cccc(Cl)c1Cl)c1nc(N)nc(N2CCN(C)CC2)n1 (racemic) [Compound 2, (RS)-4-[1-(2,3-dichlorophenoxy)propyl]-6-(4-methylpiperazin-1-yl)-1,3,5-triazin-2-amine] | 521 | 421 | 0.2601 | 12.00 ± 7.55 | 0.5425 | 13.33 ± 2.31 | 223.13 ± 11.4 | 220.71 ± 4.7 | 25% | 171.38 ± 12.80 | 52.67 ± 5.37 | 40.33 ± 6.66 | 42.88 ± 2.10 F(4,27) = 3.5450; p < 0.05 s | 0.3 | protective activity | – | –
CCC(Oc1ccccc1)c1nc(N)nc(N2CCN(C)CC2)n1 (racemic) [Compound 3, (RS)-4-(4-methylpiperazin-1-yl)-6-(1-phenoxypropyl)-1,3,5-triazin-2-amine] | 3640 | 1510 | 0.0001 | 0.33 ± 0.58 | 0.0324 | 1.67 ± 1.53 | 177.50 ± 6.1 | 159.13 ± 13.3 | about 36% | 134.63 ± 16.7 | 38.14 ± 4.18 | 35.57 ± 3.76 | 34.14 ± 1.22; F(5,47) = 1.9394; NS s | 0.1 | protective activity | about 30% | 47.33 ± 4.79
